Assay results reported in patent US20220348565A1, “PHARMACEUTICAL COMPOUNDS” (SENTINEL ONCOLOGY LIMITED, priority 2019, published 2022).

How the values were obtained:
[1] = system: U87MG cells; test: U87MG human glioblastoma cell viability, SRB assay, 72 hours; assay type: cell-based; details: listed as A-3
Protocol: The following protocol was used to measure the effects of compounds of the invention on U87MG cell viability.
U87MG cells were grown in their recommended growth media/supplements (ATCC). Cells were seeded at a concentration of 5000 cells per well into 96 well plates overnight at 37° C., 5% CO2. Cells were treated with relevant concentrations of test compound for 72 hours. After 72 hours incubation, viability was established using sulforhodamine B (SRB) colorimetric assay. Percentage viability was calculated against the mean of the DMSO treated control samples, and IC50 values for inhibition of cell growth were calculated using GraphPad Prism software by nonlinear regression (4 parameter logistic equation).

[2] = system: KRAS G12V HeLa cell line; test: HeLa cell viability, oncogenic KRasG12V transgene, Cell Titre Blue; assay type: cell-based; details: KRAS G12V HeLa cells, 72 hours; listed as A-3
Protocol: (§1) Atropisomers A-1, A-2, A-3 and A-4 were tested on HeLa cells engineered to inducibly express wild-type or oncogenic KRasG12V transgenes using the FLP-in/T-Rex system (Invitrogen). Cells were plated, and then treated with or without Doxycycline to induce transgene expression, and then treated with serially-diluted PBD inhibitors. After 72 hours of incubation, cell viability was assessed using the Cell Titre Blue reagent (Promega) and a BMG Pherastar plate reader. The effect of PBD inhibition on cell viability with either wild-type or oncogenic G12V KRAS was assessed using GraphPad Prism.
(§2) From the results obtained by following the above protocol, the GI50 values against the wild-type and KRAS G12V HeLa cell line of each of the atropisomers were determined as shown in Table 12.

[3] = system: wild-type KRAS HeLa cells; test: HeLa cell viability, wild-type KRAS transgene, Cell Titre Blue; assay type: cell-based; details: 72 hours, listed as A-3, read-out: WT GI50
Protocol: as §1, §2

[4] = Mouse PK, brain exposure after p.o. dosing; assay type: in vivo, Male CD-1 mice
Protocol: (§3) Atropisomers A-2 and A-3 were evaluated in an in vivo mouse model to determine brain and plasma concentrations following p.o. and i.v. dosing.
(§4) Male CD-1 mice were dosed with the compounds of Examples A-2 and A-3, either by i.v. administration (2 mg/kg) or by p.o. administration (10 mg/kg). Eight samples were taken for analysis in the i.v. leg at 2, 10, 30 min, 1, 2, 4, 8, and 24 (for i.v) and 9 samples in the p.o. leg at 15, 30 min, 1, 2, 4, 8, 24, 48 and 72 hrs.
(§5) The compounds of Examples A-2 and A-3 were both formulated in 10% DMSO/90% hydroxypropyl-beta-cyclodextrin (20% w/v in water) for i.v. and p.o. dosing. N =3 mice per time point.
(§6) Post dosing, terminal blood samples were taken from individual animals and delivered into labelled polypropylene tubes containing anticoagulant (EDTA). The samples were held on wet ice for a maximum of 30 min while sampling of all the animals in the cohort was completed. The blood samples were centrifuged for plasma (4° C., 21100 g for 5 min) and the resulting plasma transferred into corresponding labelled tubes. Terminal brains from each PO dosed animal were excised, rinsed with saline and placed into pre-weighed labelled polypropylene tubes and the samples re-weighed prior to storage.
(§7) Quantitative bioanalysis was carried out using liquid chromatography—mass spectroscopy was performed. The results are shown in Tables 14, 15 and 16 below and in FIGS. 12 to 15.

[5] = system: U87MG cells; test: Cells in mitosis (phospho-histone H3, mitotic index), U87MG; assay type: cell-based; details: Homo sapiens, U-87 MG; % mitotic cells (phospho-histone H3), 24 hours
Source text: (§8) Inhibiting the ability of PLK1 and PLK4 to bind to their partners through their PBDs is known to cause cells to arrest in mitosis. Experimentally, this can be measured by assessing the number of cells which are in mitosis at a certain time after treatment with a test compound by immunofluorescent detection of phosphorylated Histone H3 (pH3), a mark which is only present in mitotic cells. PLK1/4-PBD inhibitors are expected to cause a dose-dependent increase in pH3-positive cells, which is reported as Mitotic Index (MI)—the percentage of cells which, at a given time, are positive for this mitotic mark.
(§9) The following protocol was used to measure the effects of atropisomer A-2 and atropisomer A-3 on arresting cells in mitosis.
(§10) Cells were plated at 10 000/well in 96-well plates and incubated overnight. The following day atropisomer A-2 stocks in DMSO were diluted in medium then added to cells with a maximum final DMSO concentration on cells of 0.2%. Cells were incubated with the compound for 24 hours then fixed in 3.7% formaldehyde. Cells were permeabilised with 0.1% Triton X-100 then incubated with anti-phospho-histone H3 (Ser10) antibody (Abcam). The cells were washed with PBS then incubated with AlexaFluor 488 labelled goat anti-rabbit IgG (Invitrogen) in the presence of 4 ug/mL Hoechst 33342 (Invitrogen). […]

[6] = system: HeLa cells; test: Cells in mitosis (phospho-histone H3, mitotic index), HeLa; assay type: cell-based; details: Homo sapiens, % mitotic cells (phospho-histone H3), 24 hours
Source text: as §8, §9, §10

[7] = Mouse PK, plasma after i.v. and p.o. dosing (oral bioavailability); assay type: in vivo, Male CD-1 mice; details: for half-life: read-out: T ½ (converted)
Protocol: as §3, §4, §5, §6, §7

[8] = mouse, po, brain exposure, p.o. 10 mg/kg, male CD-1 mice
[9] = mouse, 2 mg/kg, 2 mq/Kq IV, male CD-1 mice, plasma
[10] = mouse, 10 mg/kg, 10 mq/Kq PO, male CD-1 mice, plasma

Compound CN(C)CCNC(=O)c1ccc(-c2ccc(-c3ccc(Cl)cc3)n2-c2ccccc2C(F)(F)F)nc1 (single isomer, unassigned) [Atropisomer A-3, 6-[5-(4-chlorophenyl)-1-[2-(trifluoromethyl)phenyl]pyrrol-2-yl]-N-[2-(dimethylamino)ethyl]pyridine-3-carboxamide] has an IC50 [1] of 150 nM, a GI50 [2] of 2.6 nM and a GI50 [3] of 4.68 nM. For the same compound, the Cmax [4, 8] was 604 ng/mL, the Tmax [4, 8] was 8 h and the half-life ([4]; mouse, po, brain exposure, p.o. 10 mg/kg, male CD-1 mice, read-out: T ½ (converted)) was 492 min. For the same compound, the AUC(0-t) ([4]; mouse, po, brain, p.o. 10 mg/kg, male CD-1 mice, read-out: AUClast brain) was 14100 ng·h/mL, the “brain exposure (in words)” value ([4]; oral dosing in mice) was “high brain exposure” and the EC50 [5] was 100 nM. For the same compound, the EC50 [6] was 30 nM, the CI ([7]; 2 mq/Kq IV, male CD-1 mice, plasma) was 16.8 mL/min/kg and the F ([7]; 10 mq/Kq PO vs 2 mq/Kq IV, male CD-1 mice) was 70%. It also gave an AUC(0-inf) [7, 9] of 1990 ng·h/mL, a Cmax [7, 9] of 274 ng/mL and a half-life [7, 9] of 504 min. It also gave an AUC(0-inf) [7, 10] of 6920 ng·h/mL, a Cmax [7, 10] of 322 ng/mL and a half-life [7, 10] of 498 min. For the same compound, the AUC(0-t) ([7]; mouse, po, plasma, p.o. 10 mg/kg, male CD-1 mice, read-out: AUClast plasma) was 6920 ng·h/mL and the “oral absorption / oral bioavailability (in words)” value ([7]; oral dosing in mice) was “highly absorbed”.
